# In patent publication US11214803B2, “Modulators of YAP1 expression” (Ionis Pharmaceuticals, Inc., priority 2019, dated 2022):
# “And” between values parts separate entries of the source, which are not always exact repeats. Equal entries are not always repeated. Strand notation (5' to 3'): a small letter for the sugar, then the base; units joined by * are phosphorothioate-linked, units joined directly phosphodiester-linked; [ ] holds rarer units or linkages, { } end groups; capitals alone tell only the bases. k = constrained ethyl (cEt); [5mC] = 5-methylcytosine; d = 2'-deoxy (DNA)
# Columns and labels:
# Yap1 mRNA [1] = assay: Dose-dependent inhibition of human Yap1 in SNU-449 cells (Example 9, RTS36584); format: cell-based; conditions: free uptake; for % UTC (Yap1 mRNA): approximately 48 hours; for IC50: linear regression on a log/linear plot
# Procedure, shortened: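 Read-out was Yap1 mRNA (primer-probe RTS36584) normalised to total RNA by RIBOGREEN, given as % of untreated cells, with IC50 fitted by linear regression of log/linear data. Oligonucleotides were dosed by free uptake to SNU-449 cells, 10,000/well, for ~48 h.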
# Yap1 mRNA [2] = assay: Inhibition of human Yap1 mRNA in epidermoid carcinoma A-431 xenograft tumors (Example 27); format: in vivo; conditions: A-431 xenografts in NCr-Foxn1nu mice, 6-8 hours post final dose, relative to PBS
# Experimental: An epidermoid carcinoma A-431 xenograft tumor model was used to evaluate activity of modified oligonucleotides targeted to human Yap1. Five million A-431 cells in 30% matrigel were implanted subcutaneously into the flanks of female NCr-Foxn1nu mice (from Taconic) at 4-6 weeks of age. When tumors reached an average volume of 40 mm^3, approximately two weeks post-implantation, groups of four mice each were administered at either 25 mg/kg or 50 mg/kg daily with modified oligonucleotides for […] (5 doses). Tumors were collected 6-8 hours post final dose and tested for Yap1 mRNA knockdown by RT-qPCR. Yap1 mRNA levels were measured as previously described using the Human Yap1 primer-probe set RTS4814. Yap1 mRNA levels were normalized to actin-beta content, as measured by primer probe set RTS5002. Results are presented in the tables below as percent control of the amount of Yap1 mRNA relative to PBS treated animals (% control).
# Yap1 mRNA [3] = assay: Yap1 mRNA in SCC25 cells, RNA analysis (Example 25); format: cell-based, human; conditions: free uptake, 48 hours, RTS4814, normalized to actin-beta
# Experimental: Modified oligonucleotides described in the studies above were tested at various doses in squamous cell carcinoma cell SCC25. A control oligonucleotide 792169 (a 3-10-3 cET gapmer with a full phosphorothioate backbone, […], designated herein as SEQ ID No.: 2940; is not complementary to any known human gene) was also tested.
# Cultured SCC25 cells at a density of 5,000 cells per well were treated using free uptake with modified oligonucleotides diluted to concentrations described in the tables below. After approximately 48 hours, Yap1 mRNA levels were measured as previously described using the Human Yap1 primer-probe set RTS4814. Yap1 mRNA levels were normalized to actin-beta content, as measured by primer probe set RTS5002 (forward sequence […], designated herein as SEQ ID NO.: 20; reverse sequence […], designated herein as SEQ ID NO.: 21; probe sequence […], designated herein as SEQ ID NO.: 22). Results are presented in the tables below as percent control of the amount of Yap1 mRNA relative to untreated control cells (% UTC).
# [4] = Cynomolgus monkey tolerability, pro-inflammatory proteins analysis, Complement C3 and CRP (Example 34); format: in vivo; conditions: cynomolgus monkeys, 35 mg/kg subcutaneously; for CRP: day 44
# Experimental: To evaluate any inflammatory effect of Ionis oligonucleotides in cynomolgus monkeys, blood samples were taken for analysis. The monkeys were fasted overnight prior to blood collection. On day 42 (pre-dose and 24 hours post-dose), approximately 0.8 mL of blood was collected from each animal and put into tubes without anticoagulant for serum separation. […] Complement C3 were measured using a Toshiba 120 FR NEO chemistry analyzer (Toshiba Co., Japan). […] Another marker of inflammation, C-Reactive Protein (CRP) was tested together with the clinical chemistry parameters tested for liver function above.
# [5] = Cynomolgus monkey tolerability, hematology (Example 34); format: in vivo, cynomolgus monkeys; conditions: for BAS / EOS / HCT / HGB / LUC / LYM / MCH / MCHC / MCV / MON / NEU / PLT / RBC / RCDW / Retic / WBC: cynomolgus monkey, in vivo, sc, 35 mg/kg; for MPV: cynomolgus monkeys, 35 mg/kg subcutaneously, day 44
# Experimental: To evaluate any effect of Ionis oligonucleotides in cynomolgus monkeys on hematologic parameters, blood samples of approximately 0.5 mL of blood was collected from each of the available study animals on day 44. The samples were collected in tubes containing K2-EDTA. Samples were analyzed for red blood cell (RBC) count, Hemoglobin (HGB), Hematocrit (HCT), Mean corpuscular volume (MCV), mean corpuscular hemoglobin (MCH), mean corpuscular hemoglobin concentration (MCHC), RBC Distribution Width (RCDW), reticulocyte count (Retic), platelet count (PLT), mean platelet volume (MPV), white blood cells (WBC) count, individual white blood cell counts, such as that of monocytes (MON), neutrophils (NEU), lymphocytes (LYM), eosinophils (EOS), basophils (BAS), and large unstained cells (LUC) using an ADVIA2120i hematology analyzer (Siemens, USA).
# [6] = Cynomolgus monkey tolerability, kidney and liver function markers (Example 34); conditions: cynomolgus monkeys, 35 mg/kg subcutaneously, day 44
# Experimental: Prior to the study, the monkeys were kept in quarantine during which the animals were observed daily for general health. The monkeys were 2-4 years old and weighed 2-4 kg. Eleven groups of 4 randomly assigned male cynomolgus monkeys each were injected subcutaneously with Ionis oligonucleotide or saline in a clock-wise rotation between four different sites on the back. Following loading doses on days 1, 3, 5 and 7, the monkeys were dosed once per week (on days 14, 21, 28, 35, and 42) with 35 mg/kg of Ionis oligonucleotide.
# To evaluate the effect of Ionis oligonucleotides on hepatic and kidney function, blood samples were collected from all the study groups on day 44. The monkeys were fasted overnight prior to blood collection. Blood was collected in tubes without anticoagulant for serum separation. The tubes were kept at room temperature for a minimum of 90 minutes and then centrifuged at 3000 rpm for 10 minutes to obtain serum. Levels of various liver function markers were measured using a Toshiba 200FR NEO chemistry analyzer (Toshiba Co., Japan).
substance,measurement,setting,value
715487 (kA*kT*kT*dA*d[5mC]*dT*dT*d[5mC]*dA*dT*dA*dG*d[5mC]*kT*kT*kA) [compound 715487],% UTC (Yap1 mRNA),Yap1 mRNA [1]; 125.0 nM,47 % UTC and 44 % UTC and 56 % UTC and 53 % UTC and 73 % UTC and 70 % UTC and 62 % UTC and 48 % UTC
same,IC50,Yap1 mRNA [1],400 nM and 300 nM and 200 nM
same,"Yap1 mRNA in tumors, % control",Yap1 mRNA [2]; 25 mpk daily (5 doses),61 % control
same,"Yap1 mRNA in tumors, % control",Yap1 mRNA [2]; 50 mpk daily (5 doses),57 % control
"1076453 (GTAATATTGCAATCTG; 3-10-3 cEt gapmer, further chemistry not given here) [compound 1076453]",% UTC (Yap1 mRNA),Yap1 mRNA [1]; 31.3 nM,67 % UTC
same,% UTC (Yap1 mRNA),Yap1 mRNA [1]; 125.0 nM,29 % UTC
same,% UTC (Yap1 mRNA),Yap1 mRNA [1]; 500.0 nM,8 % UTC
same,% UTC (Yap1 mRNA),Yap1 mRNA [1]; 2000.00 nM,1 % UTC
same,IC50,Yap1 mRNA [1],100 nM
same,"Yap1 mRNA, % UTC",Yap1 mRNA [3]; 0.04 μM,59 % UTC
same,"Yap1 mRNA, % UTC",Yap1 mRNA [3]; 0.2 μM,21 % UTC
same,"Yap1 mRNA, % UTC",Yap1 mRNA [3]; 1 μM,7 % UTC
same,"Yap1 mRNA, % UTC",Yap1 mRNA [3]; 5 μM,3 % UTC
same,"Yap1 mRNA in tumors, % control",Yap1 mRNA [2]; 25 mpk daily (5 doses),55 % control
same,"Yap1 mRNA in tumors, % control",Yap1 mRNA [2]; 50 mpk daily (5 doses),25 % control
same,Complement C3,[4]; Day 42 (pre-dose),101 mg/dL
same,Complement C3,[4]; day 42 (24 hr post-dose),88 mg/dL
same,CRP,[4],1.5 mg/L
same,BAS,[5],0.4%
same,EOS,[5],1.1%
same,HCT,[5],43%
same,HGB,[5],13 g/dL
same,LUC,[5],1.2%
same,LYM,[5],54%
same,MCH,[5],23 pg
same,MCHC,[5],29 g/dL
same,MCV,[5],79 fL
same,MON,[5],3.9%
same,NEU,[5],39%
same,PLT,[5],358 10^3/μL
same,RBC,[5],5.5e+06 µL⁻¹
same,RCDW,[5],15%
same,Retic,[5],1.2%
same,WBC,[5],10000 µL⁻¹
same,MPV,[5],8.4 fL
same,ALB,[6],3.9 g/dL
same,ALP,[6],1173 IU/L
same,ALT,[6],53 IU/L
same,AST,[6],76 IU/L
same,BUN,[6],27 mg/dL
same,CREA,[6],0.9 mg/dL
same,GGT,[6],78 IU/L
same,GLO,[6],3.1 g/dL
same,GLU,[6],89 mg/dL
same,HDL,[6],98 mg/dL
same,LDL,[6],66 mg/dL
same,TBIL,[6],0.2 mg/dL
same,TG,[6],29 mg/dL
same,TP,[6],7.0 g/dL
"958499 (ATTAGAGTATGTGGCA; 3-10-3 cEt gapmer, further chemistry not given here) [compound 958499]",% UTC (Yap1 mRNA),Yap1 mRNA [1]; 31.3 nM,93 % UTC
same,% UTC (Yap1 mRNA),Yap1 mRNA [1]; 125.0 nM,47 % UTC
same,% UTC (Yap1 mRNA),Yap1 mRNA [1]; 500.0 nM,19 % UTC
same,% UTC (Yap1 mRNA),Yap1 mRNA [1]; 2000.00 nM,7 % UTC
same,IC50,Yap1 mRNA [1],200 nM
same,"Yap1 mRNA, % UTC",Yap1 mRNA [3]; 0.04 μM,47 % UTC
same,"Yap1 mRNA, % UTC",Yap1 mRNA [3]; 0.2 μM,22 % UTC
same,"Yap1 mRNA, % UTC",Yap1 mRNA [3]; 1 μM,10 % UTC
same,"Yap1 mRNA, % UTC",Yap1 mRNA [3]; 5 μM,4 % UTC
same,"Yap1 mRNA in tumors, % control",Yap1 mRNA [2]; 25 mpk daily (5 doses),49 % control
same,"Yap1 mRNA in tumors, % control",Yap1 mRNA [2]; 50 mpk daily (5 doses),29 % control
same,Complement C3,[4]; Day 42 (pre-dose),112 mg/dL
same,Complement C3,[4]; day 42 (24 hr post-dose),89 mg/dL
same,CRP,[4],9.9 mg/L
same,BAS,[5],0.4%
same,EOS,[5],1.1%
same,HCT,[5],43%
same,HGB,[5],12 g/dL
same,LUC,[5],1.2%
same,LYM,[5],44%
same,MCH,[5],22 pg
same,MCHC,[5],29 g/dL
same,MCV,[5],77 fL
same,MON,[5],3.5%
same,NEU,[5],49%
same,PLT,[5],399 10^3/μL
same,RBC,[5],5.6e+06 µL⁻¹
same,RCDW,[5],12%
same,Retic,[5],1.5%
same,WBC,[5],12000 µL⁻¹
same,MPV,[5],7.6 fL
same,ALB,[6],4.0 g/dL
same,ALP,[6],1449 IU/L
same,ALT,[6],67 IU/L
same,AST,[6],73 IU/L
same,BUN,[6],24 mg/dL
same,CREA,[6],0.9 mg/dL
same,GGT,[6],67 IU/L
same,GLO,[6],3.2 g/dL
same,GLU,[6],83 mg/dL
same,HDL,[6],89 mg/dL
same,LDL,[6],46 mg/dL
same,TBIL,[6],0.2 mg/dL
same,TG,[6],41 mg/dL
same,TP,[6],7.2 g/dL
"CGCCGATAAGGTACAC (cEt gapmer, phosphorothioate backbone, further chemistry not given here) [ION 792169, reference compound]","Yap1 mRNA, % UTC",Yap1 mRNA [3]; 0.04 μM,96 % UTC
same,"Yap1 mRNA, % UTC",Yap1 mRNA [3]; 0.2 μM,89 % UTC
same,"Yap1 mRNA, % UTC",Yap1 mRNA [3]; 1 μM,93 % UTC
same,"Yap1 mRNA, % UTC",Yap1 mRNA [3]; 5 μM,98 % UTC
